Measurements from the NIST ThermoML archive (doi:10.1016/j.jct.2016.03.026).
Values joined by “and” are separate entries in the source; they are usually repeats but may differ in a detail not shown here. Equal values may be shown once.

Assay: xn = mol fraction of the nth substance listed
Settings: Fluid (supercritical or subcritical phases); for speed of sound: Frequency=5 MHz, Pulse-echo method, x1 = 0.925; for mass density: 263.15 K, Vibrating tube method, x1 = 0.97

O=C=O [carbon dioxide] + CO
speed of sound
Settings	263.13 K	263.14 K
7970 kPa	694.6 m/s and 693.1 m/s	694.8 m/s and 695.2 m/s
9960 kPa	–	715.4 m/s
9990 kPa	715.1 m/s	–
10000 kPa	714.3 m/s	–
10020 kPa	–	715.9 m/s
14940 kPa	760.5 m/s	–
14950 kPa	–	760.8 m/s
14960 kPa	759.3 m/s	–
14990 kPa	–	761 m/s
19990 kPa	799.6 m/s	801 m/s
20000 kPa	800.7 m/s	–
20020 kPa	–	800.7 m/s
24970 kPa	836 m/s	836.4 m/s
24980 kPa	835.1 m/s	–
24990 kPa	–	836.3 m/s
29960 kPa	867.4 m/s	868.8 m/s
29990 kPa	868.4 m/s	–
30000 kPa	–	868.9 m/s
34950 kPa	–	898.5 m/s
34980 kPa	–	898.5 m/s
34990 kPa	898.5 m/s	–
35000 kPa	897.7 m/s	–
39950 kPa	926.1 m/s	–
39970 kPa	925.5 m/s	–
39990 kPa	–	926.5 m/s and 926.8 m/s
44970 kPa	952.1 m/s	–
44980 kPa	951.6 m/s	–
45030 kPa	–	952.7 m/s
45040 kPa	–	952.8 m/s
49950 kPa	–	977.1 m/s
49960 kPa	–	977.1 m/s
49970 kPa	977 m/s and 976.2 m/s	–
54950 kPa	999.5 m/s	–
54980 kPa	–	1000.5 m/s
54990 kPa	1000.3 m/s	–
55010 kPa	–	1000.5 m/s
59950 kPa	1021.6 m/s	1022.5 m/s
59970 kPa	–	1022.9 m/s
59990 kPa	1022.6 m/s	–
64970 kPa	–	1043.9 m/s and 1044.2 m/s
64980 kPa	1043.7 m/s	–
65000 kPa	1043 m/s	–
69950 kPa	–	1064.3 m/s
69960 kPa	1063.9 m/s	–
69990 kPa	–	1064.1 m/s
70000 kPa	1063.4 m/s	–
74960 kPa	1083.5 m/s and 1082.7 m/s	–
74970 kPa	–	1083.7 m/s
74990 kPa	–	1084.1 m/s
79980 kPa	1101.6 m/s	–
79990 kPa	–	1102.8 m/s
80000 kPa	1102.6 m/s	1102.8 m/s
89950 kPa	–	1138.4 m/s
89990 kPa	1137.3 m/s	–
90000 kPa	1138.2 m/s	–
90020 kPa	–	1138.8 m/s
99980 kPa	–	1172.1 m/s
99990 kPa	1171.5 m/s	–
100000 kPa	1170.8 m/s	1171.8 m/s
109970 kPa	1202.4 m/s	–
109980 kPa	1203.2 m/s	1203.3 m/s
110000 kPa	–	1203.8 m/s
119950 kPa	1232.3 m/s	–
119980 kPa	1233.2 m/s	1233.5 m/s
120000 kPa	–	1233.4 m/s
129980 kPa	1261.7 m/s	–
129990 kPa	1260.9 m/s	–
130000 kPa	–	1262 m/s
130010 kPa	–	1262.1 m/s
139970 kPa	1288.8 m/s	–
139980 kPa	1288.1 m/s	1289.1 m/s
140010 kPa	–	1289.5 m/s
149950 kPa	1315 m/s	1315.1 m/s
149970 kPa	1314.1 m/s	–
150000 kPa	–	1315.4 m/s
159950 kPa	–	1340.4 m/s
159960 kPa	–	1340.2 m/s
159970 kPa	1340 m/s	–
159980 kPa	1339.2 m/s	–
169960 kPa	–	1364.5 m/s
169980 kPa	–	1364.2 m/s
170010 kPa	1364.1 m/s	–
170040 kPa	1363.4 m/s	–
179970 kPa	–	1388 m/s
179990 kPa	–	1387.5 m/s
180000 kPa	1386.5 m/s	–
180020 kPa	1387.5 m/s	–
190000 kPa	1409.9 m/s	1410.3 m/s
190010 kPa	1409 m/s	–
190020 kPa	–	1409.9 m/s

Settings	mass density [kg/m3]
4000 kPa	989.7
4025 kPa	990.23
4050 kPa	990.17
4075 kPa	990.12
4100 kPa	990.09
4125 kPa	990.27
4150 kPa	990.42
4175 kPa	990.57
4200 kPa	990.66
4225 kPa	990.83
4250 kPa	990.91
4275 kPa	991.06
4300 kPa	991.18
4325 kPa	991.32
4350 kPa	991.48
4375 kPa	991.65
4400 kPa	991.73
4425 kPa	991.89
4450 kPa	992.03
4475 kPa	992.14
4500 kPa	992.26
4525 kPa	992.39
4550 kPa	992.55
4575 kPa	992.63
4600 kPa	992.8
4625 kPa	992.88
4650 kPa	993.04
4675 kPa	993.21
4700 kPa	993.29
4725 kPa	993.45
4750 kPa	993.53
4775 kPa	993.7
4800 kPa	993.78
4825 kPa	993.94
4850 kPa	994.11
4875 kPa	994.19
4900 kPa	994.35
4925 kPa	994.43
4950 kPa	994.6
4975 kPa	994.76
5000 kPa	994.84
5025 kPa	995.01
5050 kPa	995.09
5075 kPa	995.25
5100 kPa	995.34
5125 kPa	995.5
5150 kPa	995.58
5175 kPa	995.74
5200 kPa	995.91
5225 kPa	995.99
5250 kPa	996.15
5275 kPa	996.24
5300 kPa	996.4
5325 kPa	996.48
5350 kPa	996.65
5375 kPa	996.73
5400 kPa	996.89
5425 kPa	996.97
5450 kPa	997.14
5475 kPa	997.22
5500 kPa	997.38
5525 kPa	997.46
5550 kPa	997.63
5575 kPa	997.71
5600 kPa	997.87
5625 kPa	997.96
5650 kPa	998.12
5675 kPa	998.2
5700 kPa	998.37
5725 kPa	998.52
5750 kPa	998.61
5775 kPa	998.69
5800 kPa	998.86
5825 kPa	998.94
5850 kPa	999.1
5875 kPa	999.18
5900 kPa	999.35
5925 kPa	999.43
5950 kPa	999.59
5975 kPa	999.68
6000 kPa	999.84
6025 kPa	999.92
6050 kPa	1000.09
6075 kPa	1000.17
6100 kPa	1000.33
6125 kPa	1000.41
6150 kPa	1000.58
6175 kPa	1000.66
6200 kPa	1000.79
6225 kPa	1000.9
6250 kPa	1000.98
6275 kPa	1001.15
6300 kPa	1001.23
6325 kPa	1001.39
6350 kPa	1001.48
6375 kPa	1001.64
6400 kPa	1001.72
6425 kPa	1001.82
6450 kPa	1001.97
6475 kPa	1002.05
6500 kPa	1002.21
6525 kPa	1002.29
6550 kPa	1002.46
6575 kPa	1002.54
6600 kPa	1002.7
6625 kPa	1002.79
6650 kPa	1002.95
6675 kPa	1003.03
6700 kPa	1003.2
6725 kPa	1003.28
6750 kPa	1003.36
6775 kPa	1003.52
6800 kPa	1003.6
6825 kPa	1003.77
6850 kPa	1003.85
6875 kPa	1004.01
6900 kPa	1004.09
6925 kPa	1004.25
6950 kPa	1004.34
6975 kPa	1004.42
7000 kPa	1004.59
7025 kPa	1004.67
7050 kPa	1004.82
7075 kPa	1004.91
7100 kPa	1004.99
7125 kPa	1005.16
7150 kPa	1005.24
7175 kPa	1005.38
7200 kPa	1005.49
7225 kPa	1005.57
7250 kPa	1005.73
7275 kPa	1005.81
7300 kPa	1005.9
7325 kPa	1006.06
7350 kPa	1006.14
7375 kPa	1006.29
7400 kPa	1006.39
7425 kPa	1006.47
7450 kPa	1006.63
7475 kPa	1006.71
7500 kPa	1006.79
